From PMC9161444, “In-Membrane Nanostructuring of Cationic Amphiphiles Affects Their Antimicrobial Efficacy and Cytotoxicity: A Comparison Study between a De Novo Antimicrobial Lipopeptide and Traditional Biocides” (Langmuir, 2022)

Experiment: Surface tension measurements (CAC, area per molecule)
Type: physicochemical
Conditions: Krüss K11, 25 °C, PBS or saline (171.5 mM NaCl, pH 7.2) of equivalent ionic strength, saline for C14KKGGII, points repeated at least three times
Description: Surface tensions of salt solutions of the amphiphiles were measured using a Krüss Force Tensiometer K11 at 25 °C. Saline (171.5 mM NaCl, final pH 7.2) instead of phosphate-buffered saline (PBS) was used to dissolve the samples of peptide C14KKGGII in order to avoid gelation above 0.1 mM. The ionic strength of the saline solution was the same as that of the PBS (consisting of 137 mM NaCl, 2.7 mM KCl, 8.1 mM Na2HPO4, and 1.9 mM KH2PO4, pH 7.2) solution employed in antimicrobial assays. Concentration effects on the surface tension were investigated for each amphiphile, and its CAC in the buffer environment was determined. All the data points were repeated at least three times. Quadratic functions were used to fit the surface tension at low concentrations below their CACs, while linear functions were used to fit the high concentration regions above the CACs for all three amphiphiles: [drawing 1] 1 [drawing 2] 2 where γ represents the surface tension in milli-newtons per meter, C is the amphiphile concentration in millimolar, and a1, b1, b2, c1, and c2 are the best fitted parameters. Intersections of the two lines give the estimated CACs of the amphiphiles. The Gibbs equation for solutions with a constant and excess salt is [drawing 3] […] The areas per molecule for the three amphiphiles at their CACs were calculated using [drawing 6] […]

## CCCCCCCCCCCC[N+](C)(C)C.[Br-] [C12TAB, dodecyltrimethylammonium bromide]
  CAC (critical aggregation concentration): ~1000 ± 100 µM
